Experiment [1] deals with tumor endothelial cells (CT26.CL25 colon cancer tumor). Nature of the experiment: Colon CT26 ex vivo model of tumor angiogenesis. To be noted: Mus musculus, CT26, 48 h, read-out: Cell death. The format is cell-based. On the procedure: This example describes a procedure to prepare a primary tumor angiogenesis model for assessing the efficacy of anti-cancer candidate agents.
1. The day before the experiment, spray all necessary tools with 70% ethanol and sterilize them under UV light overnight, including blade, dissecting and micro-dissecting scissors and […]. Place 24-well dishes at 4° C. to pre-chill plates and thaw Matrigel 24 hours before tumor dissection.
2. Spray 70% ethanol on working bench. Prepare two sterile petri dishes with 10 mL sterile PBS. Steps 3 and 4 are for mouse tumor models. For fresh human tumor, directly go to step 5.
3. Euthanize the tumor-bearing mice. Spray 70% ethanol on the mouse and remove the tumor using sterilized dissecting tools (avoid the fur). Rinse the tumor in petri dish with sterile PBS to remove ethanol and fur. Transfer the tumor to a new petri dish with PBS for dissection. Place the dish on ice.
4. Using pre-chilled sterile pipet tips to seed regular Matrigel in 24 well plates on ice. Matrigel (30 μL) is dropped in the middle of each well without touching the edge of the well (avoid introducing bubbles if possible).
5. Cut the tumor in halves using the sterile blade. Identify and isolate healthy tumor tissue that is not necrotic and is within the tumor capsule. Cut the healthy tumor tissue into small pieces. For instance, a suitable size for the tumor tissue is 0.5 mm (H)×0.5 mm (L)×0.3 mm (D) with a total volume of 0.075 mm^3.
6. Gently transfer and embed each tumor piece in the Matrigel drop in the 24-well plate. Place the embedded piece in the bottom and middle of each Matrigel drop. Keep the plate on ice all the time.
7. After seeding the tumor pieces, plates are incubated in a 37° C. cell culture incubator without medium for 10 minutes in order for the Matrigel to solidify.
8. Endothelial Growth Medium (0.5 mL) is added to each well and incubated at 37° C. with 5% CO2. Wait until the new endothelial cells have grown out of the tumor or are larger than 3 mm in diameter until treatment. This usually takes 4 days for the LL2 Lewis lung cancer model and 7 days for the CT26 colon cancer model. For human tumor models, the growth time is typically 2-3 weeks, depending on the tumor type. Media is changed every 4 days during prolonged culture. Typically, when the tumor tissue grows to 2 mm in diameter, it is good for drug testing. A size of about 3 mm in diameter can make visualization easier.
9. When the assay is ready to be analyzed for cell death (e.g., 48 hours after drug addition), prepare the dye mixture by mixing 6 μL of green dye to stain live cells (5 mg/mL Fluorescein diacetate or FDA in DMSO) with 30 μL of red dye (2.5 mg/mL Propidium iodide or PI in PBS) to stain dead cells in an Eppendorf tube. The FDA dye needs to be stored frozen in a −20° C. freezer because it has a labile ester bond.
10. Add 1 μL of the dye mixture to each well of the 24-well dish. It is usually performed one 24-well dish at a time given the amount of time needed to take pictures (the green dye is not as stable in the cells in the long term).
11. Gently rock the dish a few times to mix the dye with the media in the wells and incubate the dish at 37° C. for 10 min (too long incubation can make the green signal too intense).
12. Wash each well with 0.5 mL of sterile PBS and then add 0.5 mL of phenol red free SFM to each well. Alternatively 0.5 mL of regular Endothelial Cell Growth Media can be added to each well if this well needs to be continuously maintained after the experiment.
13. Look through all wells on an inverted microscope using the 2× objective lens to observe morphological changes.
14. Taking pictures in the red and green channels would allow not only the recording of the result but also more accurate quantitation of the result. To take pictures for all the wells, first pick a well that has robust red and green signals. […]

Experiment [2] deals with tumor endothelial cells (LL/2 lung cancer tumor). As to the kind of experiment: Lung LL2 ex vivo model of tumor angiogenesis. It counts as cell-based, mouse. Particulars: for cytotoxicity at 40 µM: Mus musculus, Endothelial cell, 48 h, read-out: Cell death. Put shortly:
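Read-out is live/dead fluorescence imaging (fluorescein diacetate green, propidium iodide red, 10 min at 37° C) at 2×, taken e.g. 48 h after drug addition. Fragments of mouse LL2 tumor are cultured in Matrigel with endothelial growth medium, usually 4 days, until new endothelial cells grow out, then treated.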

Consider `CCc1ccc(S(=O)(=O)c2cnc3ccc(OC(F)(F)F)cc3c2N2CCCN(CC(=O)O)CC2)cc1` [compound 42, 2-(4-(3-((4-ethylphenyl)sulfonyl)-6-(trifluoromethoxy)quinolin-4-yl)-1,4-diazepan-1-yl)acetic acid], for which the cytotoxicity at 40 µM in experiment [1] amounted to 0%; in experiment [2], 30%.
The matching figures for `COc1ccc(S(=O)(=O)c2cnc3ccc(OC(F)(F)F)cc3c2N2CCC(N3CCCCC3)CC2)cc1` [compound 43, 4-([1,4′-bipiperidin]-1′-yl)-3-((4-methoxyphenyl)sulfonyl)-6-(trifluoromethoxy)quinoline]: 90% and 100%.
In the case of `COc1ccc(S(=O)(=O)c2cnc3ccc(OC(F)(F)F)cc3c2N2CCC(O)CC2)cc1` [compound 44, 1-(3-((4-methoxyphenyl)sulfonyl)-6-(trifluoromethoxy)quinolin-4-yl)piperidin-4-ol], the figures for the cytotoxicity at 40 µM in experiment [1] and in experiment [2] were 0% and 50%, respectively.
In the case of `CCc1ccc(S(=O)(=O)c2cnc3ccc(OC(F)(F)F)cc3c2N2CCN(c3ccc(C#N)cc3)CC2)cc1` [compound 45, 4-(4-(3-((4-ethylphenyl)sulfonyl)-6-(trifluoromethoxy)quinolin-4-yl)piperazin-1-yl)benzonitrile], in experiment [1], the cytotoxicity at 40 µM was determined as 0%. Further, the Cell death in experiment [2] (Lung LL2 ex vivo, Conc. 40 μm, drug treatment two days) was 10%.
In the case of `CCc1ccc(S(=O)(=O)c2cnc3ccc(OC(F)(F)F)cc3c2N2CCC(N3CCCC3)CC2)cc1` [compound 46, 3-((4-ethylphenyl)sulfonyl)-4-(4-(pyrrolidin-1-yl)piperidin-1-yl)-6-(trifluoromethoxy)quinoline], the cytotoxicity at 40 µM in experiment [1] and in experiment [2] was 100% in each case.
As for `CCOC(=O)C1CCN(c2c(S(=O)(=O)c3ccc(CC)cc3)cnc3ccc(OC(F)(F)F)cc23)CC1` [compound 47, ethyl 1-(3-((4-ethylphenyl)sulfonyl)-6-(trifluoromethoxy)quinolin-4-yl)piperidine-4-carboxylate], the figures for the cytotoxicity at 40 µM in experiment [1] and in experiment [2] were 10% and 50%, respectively.
The matching figures for `CCc1ccc(S(=O)(=O)c2cnc3ccc(OC(F)(F)F)cc3c2N2CCC(CO)CC2)cc1` [compound 48, (1-(3-((4-ethylphenyl)sulfonyl)-6-(trifluoromethoxy)quinolin-4-yl)piperidin-4-yl)methanol]: 10% and 60%.
Taken in the same sequence, the figures for `CCc1ccc(S(=O)(=O)c2cnc3ccc(OC(F)(F)F)cc3c2N(C)Cc2ccccc2)cc1` [compound 49, N-benzyl-3-((4-ethylphenyl)sulfonyl)-N-methyl-6-(trifluoromethoxy)quinolin-4-amine] were 10% and 30%.
On to `CCc1ccc(S(=O)(=O)c2cnc3ccc(OC(F)(F)F)cc3c2NN2CCN(C)CC2)cc1` [compound 50, 3-((4-ethylphenyl)sulfonyl)-N-(4-methylpiperazin-1-yl)-6-(trifluoromethoxy)quinolin-4-amine], for which the cytotoxicity at 40 µM came to 100% in experiment [1] and 90% in experiment [2].
As to `CCOC(=O)c1ccc2ncc(S(=O)(=O)c3ccc(OC)cc3)c(N3CCC(N4CCCCC4)CC3)c2c1` [compound 136, ethyl 4-([1,4′-bipiperidin]-1′-yl)-3-((4-methoxyphenyl)sulfonyl)quinoline-6-carboxylate], the cytotoxicity at 40 µM in experiment [1] was found to be 30%.
For `CCOC(=O)c1ccc2ncc(S(=O)(=O)c3ccc(OC)cc3)c(N3CCCC(O)C3)c2c1` (centres unmarked) [compound 137, ethyl 4-(3-hydroxypiperidin-1-yl)-3-((4-methoxyphenyl)sulfonyl)quinoline-6-carboxylate], the cytotoxicity at 40 µM in experiment [1] was 40%.
On the same count and under the same terms, to `CCOC(=O)c1ccc2ncc(S(=O)(=O)c3ccc(OC)cc3)c(N3CCC(N4CCC(O)CC4)CC3)c2c1` [compound 138, ethyl 4-(4-hydroxy-[1,4′-bipiperidin]-1′-yl)-3-((4-methoxyphenyl)sulfonyl)quinoline-6-carboxylate] belongs 20%; to `CCOC(=O)c1ccc2ncc(S(=O)(=O)c3ccc(OC)cc3)c(N3CCCN(CCN(CC)CC)CC3)c2c1` [compound 139, ethyl 4-(4-(2-(diethylamino)ethyl)-1,4-diazepan-1-yl)-3-((4-methoxyphenyl)sulfonyl)quinoline-6-carboxylate], 40%.
As for `CCOC(=O)c1ccc2ncc(S(=O)(=O)c3ccc(OC)cc3)c(N3CCC(OCCN(CC)CC)CC3)c2c1` [compound 140, ethyl 4-(4-(2-(diethylamino)ethoxy)piperidin-1-yl)-3-((4-methoxyphenyl)sulfonyl)quinoline-6-carboxylate], the cytotoxicity at 40 µM in experiment [1] came to 60%.
Turning to `CCOC(=O)c1ccc2ncc(S(=O)(=O)c3ccc(OC)cc3)c(N3CCCN(C)CC3)c2c1` [compound 144, ethyl 3-((4-methoxyphenyl)sulfonyl)-4-(4-methyl-1,4-diazepan-1-yl)quinoline-6-carboxylate], the cytotoxicity at 40 µM in experiment [1] came out at 30%.
Still for that read-out and setting: with `CCc1ccc(S(=O)(=O)c2cnc3ccc(OC(F)(F)F)cc3c2N2CCC(O)(c3ccc(OC)cc3)CC2)cc1` [compound 145, 1-(3-((4-ethylphenyl)sulfonyl)-6-(trifluoromethoxy)quinolin-4-yl)-4-(4-methoxyphenyl)piperidin-4-ol] the figure was 30%; with `CCc1ccc(S(=O)(=O)c2cnc3ccc(OC(F)(F)F)cc3c2N2CCC(O)(c3cccc(OC)c3)CC2)cc1` [compound 146, 1-(3-((4-ethylphenyl)sulfonyl)-6-(trifluoromethoxy)quinolin-4-yl)-4-(3-methoxyphenyl)piperidin-4-ol], 0%.
On the same count and under the same terms, to `CCc1ccc(S(=O)(=O)c2cnc3ccc(OC(F)(F)F)cc3c2N2CCC(O)(c3ccc4c(c3)OCO4)CC2)cc1` [compound 147, 4-(benzo[d][1,3]dioxol-5-yl)-1-(3-((4-ethylphenyl)sulfonyl)-6-(trifluoromethoxy)quinolin-4-yl)piperidin-4-ol] belongs 0%; to `CCOC(=O)c1ccc2ncc(S(=O)(=O)c3ccc(CC)cc3)c(N3CCC(O)(c4ccc(OC)cc4)CC3)c2c1` [compound 148, ethyl 3-((4-ethylphenyl)sulfonyl)-4-(4-hydroxy-4-(4-methoxyphenyl)piperidin-1-yl)quinoline-6-carboxylate], 0%; to `CCOC(=O)c1ccc2ncc(S(=O)(=O)c3ccc(CC)cc3)c(N3CCC(O)(c4cccc(OC)c4)CC3)c2c1` [compound 149, ethyl 3-((4-ethylphenyl)sulfonyl)-4-(4-hydroxy-4-(3-methoxyphenyl)piperidin-1-yl)quinoline-6-carboxylate], 20%.
Still for that read-out and setting: with `COc1ccc(S(=O)(=O)c2cnc3ccc(OC(F)(F)F)cc3c2N2CCC(O)(c3cccc(OC)c3)CC2)cc1` [compound 150, 4-(3-methoxyphenyl)-1-(3-((4-methoxyphenyl)sulfonyl)-6-(trifluoromethoxy)quinolin-4-yl)piperidin-4-ol] the figure was 10%; with `COc1ccc(S(=O)(=O)c2cnc3ccc(SC)cc3c2N2CCC(N3CCC(O)CC3)CC2)cc1OC` [compound 153, 1′-(3-((3,4-dimethoxyphenyl)sulfonyl)-6-(methylthio)quinolin-4-yl)-[1,4′-bipiperidin]-4-ol], 20%.
For `CCCCOc1ccc(S(=O)(=O)c2cnc3ccc(SC)cc3c2N2CCCN(CCN3CCCC3)CC2)cc1` [compound 207, 3-((4-butoxyphenyl)sulfonyl)-6-(methylthio)-4-(4-(2-(pyrrolidin-1-yl)ethyl)-1,4-diazepan-1-yl)quinoline], in experiment [1], the cytotoxicity at 40 µM came to 100%.

Source of the values: patent publication US11884647B2, “Compounds and methods for targeting pathogenic blood vessels” (THE REGENTS OF THE UNIVERSITY OF CALIFORNIA, priority 2019, dated 2024).
